Several values for one entry are separate records, joined by “and”; a condition that tells them apart may be missing. Identical values can stand only once.
Test system: lepidoptera eggs (Spodoptera exigua)
Assay: Direct contact overlay LC assay, caterpillar eggs
Conditions: for Times more active in the C13 blend than when tested alone: LC50 alone vs share of C13 LC50 (1% solution); for Direct AVG LC50 / Estimated LC50: mortality after five days; for Direct AVG LC50: diluent 0.25% Tween 81; for Estimated LC50: nested set, probit analysis, tested alone in 0.25% Tween 81
Text: The objective of this study was to evaluate the effects of synthetic blend-based composition C13 and each of its primary terpenes against lepidoptera eggs (Spodoptera exigua) in a laboratory assay that mimics contact activity on a leaf surface in the field. This was done by estimating the LC50 of the solvent/carrier (in this instance, vegetable oil) and the three primary terpenes alone, and comparing those values to the estimated LC50 of C13.
A requirement of the Probit model used to estimate the LC50 is that there should be a dose response with two rates above 50% mortality and two rates below 50%. Because of their solubility it was not possible to get this with a neat solution of oil or terpenes so, a series of preliminary assays were conducted to find a suitable carrier, testing solutions compatible with the terpenes and carrier. To achieve a stable emulsion of the individual terpenes that could be pipetted across a suitable range of concentrations, it was decided to use a universal diluent containing 0.25% Tween™ 81.
Stock solutions were transferred to deep, 96-well, micro-titre plates. 1.4 ml of each stock solution was placed in the 2 ml wells that ran across the top row of the deep well plate (Row A; wells 1-12, see Table 15). A digital 12-channel Matrix pipette was then used to add 700 uls of 0.25% Tween 81 in deionized water (DI H2O) to the remaining wells (Rows B-H; 1-12). The 12 channel pipette was used to perform serial dilutions by mixing, aspirating, and then dispensing 700 ul of each stock solution from row A into the adjoining 700 ul of diluent in row B. This process was repeated seven times to give a final concentration of eight, 50% serially diluted samples containing 700 μl.
An eight channel Matrix pipette was then used to mix, aspirate and distribute all eight of the serial dilutions from the deep well plate to a labeled 96 well plate containing a wheat germ/casein-based artificial diet. Aliquots containing 240 μl of each dilution were aspirated and 40 μl were dispensed into to six wells across the surface of the micro-titre plate containing 200 μl of artificial diet/well. Two samples were tested on every plate with the one sample in rows A through H—columns 1 to 6, and the second sample in wells A through H columns 7 to 12. The last two samples in each assay contain the Javelin standard and 0.25% Tween in DI water as the untreated controls.
The samples were then dried under forced air at room temperature. This deposits a thin film of the treatment on the surface of the diet much the same way as applying a spray solution to a leaf surface. Once the plates were dried, then eggs were put in each well using a Matrix pipette with 5-10 temporally synchronized caterpillar eggs suspended in 20 μl of a 0.1% agar solution. This rehydrates the surface film and then the egg:agar was dried under forced air, a second time. Once the agar solution was dry the plates were heat sealed with a perforated Mylar film that seals the insects in the well, but allows for gas exchange. The plates were incubated at 28° C. on a 16:8 light:dark cycle. After five days the numbers of live insects in each row were recorded. Mortality was recorded as the number dead over the number treated and expressed as control corrected percent mortality.

| SMILES | Times more active in the C13 blend than when tested alone | Direct AVG LC50 | Estimated LC50 |
| --- | --- | --- | --- |
| C=C(C)[C@H]1CC=C(C)CC1 [d-limonene] | 64 X | 2.093% | 1.9% and 1.905% |
| Cc1ccc(C(C)C)cc1 [p-cymene] | 72 X | 1.539% | 2.68% and 2.682% |
| CC1=CC=C(C(C)C)CC1 [α-terpinene] | – | 4.336% | 4.77% and 4.776% |

Reference: patent US20100316738A1, “METHODS OF INHIBITING, PREVENTING, KILLING AND/OR REPELLING INSECTS USING SIMULATED BLENDS OF CHENOPODIUM EXTRACTS” (priority 2009, published 2010)
